Measured values taken from US20220251079A1, “BENZO[B][1,8]NAPHTHYRIDINE ACETIC ACID DERIVATIVES AND METHODS OF USE” (STINGTHERA, INC., priority 2019, published 2022).

Key:
STING protein = target: T1, STING protein (Homo sapiens, UniProt Q86WV6, H232R); experiment: Cell based reporter assay of IRF activation (THP1-dual-KI R232, IRF luciferase); conditions: THP-1; read-out: THP1-dual-KI R232_IRF(Luciferase)_Activity Maximum measured (%)
T1 construct: host or cells: THP-1 dual reporter cells, TMEM173 modified from HAQ to R232 (THP1-dual-KI R232)
T1 sequence (Q86WV6 whole entry H232R): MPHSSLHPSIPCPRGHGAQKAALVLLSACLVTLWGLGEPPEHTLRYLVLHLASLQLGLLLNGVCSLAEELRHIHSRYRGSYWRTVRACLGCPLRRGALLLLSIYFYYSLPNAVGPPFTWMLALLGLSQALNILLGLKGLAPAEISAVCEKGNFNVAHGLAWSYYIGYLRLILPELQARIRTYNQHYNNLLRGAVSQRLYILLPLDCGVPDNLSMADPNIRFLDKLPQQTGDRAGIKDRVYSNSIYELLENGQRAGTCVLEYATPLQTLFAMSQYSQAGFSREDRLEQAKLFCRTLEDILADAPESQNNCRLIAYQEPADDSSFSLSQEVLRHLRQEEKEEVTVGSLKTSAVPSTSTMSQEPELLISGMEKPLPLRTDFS
In short: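 THP-1 monocytes stably carried an ISG54/5×ISRE firefly luciferase IRF reporter, with TMEM173 knock-in H71R A230G Q293R (R232 variant), and there was no PMA pre-activation. Compounds were tested at 8 points, 2-fold, in duplicate from 150 µM. Cell Titer Glo was applied after supernatant removal.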

[1] = target: T2, human STING protein (140-379) (Homo sapiens, UniProt Q86WV6, H232R); experiment: Radiometric filtration binding competition assay (WT_FBA_HIS-SUMO-hSWAT); conditions: read-out: WT-hSWAT IC50
T2 construct: 6XHIS-SUMO-hSTING (140-379); made in house; host or cells: BL-21(DE3) E. coli, pET vector
T2 sequence (Q86WV6 140-379 H232R): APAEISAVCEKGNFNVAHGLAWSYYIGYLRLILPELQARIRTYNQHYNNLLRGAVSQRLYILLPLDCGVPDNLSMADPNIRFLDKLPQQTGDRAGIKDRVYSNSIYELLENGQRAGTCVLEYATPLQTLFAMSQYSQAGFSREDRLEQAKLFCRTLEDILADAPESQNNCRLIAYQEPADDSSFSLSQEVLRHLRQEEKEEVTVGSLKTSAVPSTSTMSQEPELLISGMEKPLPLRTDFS
In short: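 His-SUMO-tagged STING ligand-binding domain (human 140-379 or mouse 139-328, 0.5 μM) preincubated 30 min with compound (8 points, 2-fold from 300 μM), then competed with a tritiated ligand. Complexes were filtered and counted by scintillation. IC50 from non-linear regression, with Ki extrapolated.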

mSTING-R232 (aa139-378) = target: T3, mSTING-R232 (aa139-378) (Mus musculus, UniProt Q3TBT3); experiment: STING Differential Scanning Fluorimetry (DSF) assay, mouse; format: binding; conditions: 5 μM protein
T3 construct: mSTING-R232 (aa139-378); 6xHis-SUMO; made in house
T3 sequence (Q3TBT3 139-378): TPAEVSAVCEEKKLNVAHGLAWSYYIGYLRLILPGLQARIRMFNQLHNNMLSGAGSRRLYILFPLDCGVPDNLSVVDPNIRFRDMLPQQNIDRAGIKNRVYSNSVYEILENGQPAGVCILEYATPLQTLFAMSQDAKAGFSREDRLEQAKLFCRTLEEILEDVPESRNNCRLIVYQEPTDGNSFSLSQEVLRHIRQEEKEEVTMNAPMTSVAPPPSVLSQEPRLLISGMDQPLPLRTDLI
Experimental: A STING DSF assay was performed to determine protein thermostability shift in response to small molecule ligand binding. A STING thermostability shift assay based on differential scanning fluorimetry was used to measure (1) the net shift in melting temperature (ΔTm)between the apo and ligand-bound states of the STING protein and (2) the concentration of the thermal denaturation transition (FC50) as a surrogate measure of binding affinity (Kd). Briefly, recombinant mouse or human STING protein (aa140-379) comprising the C-terminal binding domain (R232-WT) were purified by affinity chromatography and further processed to remove the purification tag, followed by gel filtration to achieve purity >95%. Protein in assay buffer was transferred to a 384 well plate and incubated with the hydrophobic fluorescent dye SYBR Orange. A temperature ramp was applied to the plate and the resulting dye fluorescence was plotted as a function of temperature. The first derivative of this function (dF/dT) was then used to extrapolate the melting temperature of the protein at various concentrations of compound and determine the thermal denaturation profile of a protein/compound complex.
2. 5 μM purified Target STING Protein
4. Buffer: 100 mM NaCl, 30 mM HEPES, pH 7.5
5. Thermal Ramp: 0.5° C./min
7. 11 point, 2 fold dilution, duplicate, 300 μM high concentrations

hSTING-R232 = target: T4, hSTING-R232 (Homo sapiens, UniProt Q86WV6, H232R); experiment: STING Differential Scanning Fluorimetry (DSF) assay, human; format: binding; conditions: human STING R232-WT, 5 μM protein
T4 construct: recombinant mouse or human STING protein (aa140-379); 6xHis-SUMO elsewhere) (cleaved yes); made in house
T4 sequence (Q86WV6 140-379 H232R): as the sequence (Q86WV6 140-379 H232R) above
In short: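 Purified STING C-terminal domain (aa140-379, R232), human or mouse, at 5 μM in 100 mM NaCl, 30 mM HEPES pH 7.5 with SYBR Orange, was heated at 0.5° C./min. Tm came from dF/dT; ΔTm and FC50 were derived from an 11-point 2-fold series from 300 μM, in duplicate.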

[2] = target: T5, mouse STING protein (139-328) (Mus musculus, UniProt Q3TBT3); experiment: Radiometric filtration binding competition assay (MOUSE_FBA_HIS-SUMO-mSWAT); conditions: read-out: WT-mSWAT IC50
T5 construct: mouse STING protein (139-328); made in house
T5 sequence (Q3TBT3 139-328): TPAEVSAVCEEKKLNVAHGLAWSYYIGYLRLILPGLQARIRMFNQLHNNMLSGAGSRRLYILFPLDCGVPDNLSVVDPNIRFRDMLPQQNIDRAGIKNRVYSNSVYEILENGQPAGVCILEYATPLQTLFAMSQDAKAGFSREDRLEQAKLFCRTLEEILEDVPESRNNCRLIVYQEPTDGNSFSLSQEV
Experimental: A radiometric filtration binding competition assay was performed to quantify the binding affinity of compounds of the present application for the human or mouse STING protein, or associated HAQ human isoform. The competition format filtration binding assay detects the ability of small molecule compounds from binding to and inhibiting the subsequent binding of a tritiated [H3] […] The resulting dose response was fit by non-linear regression to determine an IC50 value, from which a Ki value for each compound was extrapolated.
Briefly, the recombinant C-terminal ligand binding domain of the human STING protein (140-379) or mouse STING protein (139-328) [0.5 μM] was incubated in the presence of a compound of the present application (8 point, 2 fold dilution starting at 300 μM) for 30 min or under control conditions. […] The resulting complexes were then filtered, dried, and scintillation fluid was added and the remaining radio signal was measured to determine the degree of compound ligand inhibition. This assay format was optimized for both the WT and HAQ isoforms of the human protein and the mouse orthologue protein.
Parameters optimized: • a. Form of protein: 6×HIS-SUMO tag or untagged • b. Concentration of target protein: Minimum concentration that achieved >80 max signal • c. Assay DMSO concentration: 10%-0.1% • d. […]

Emax (STING protein) [%]	IC50 [1] [µM]	MOUSE DSF_6xHIS-SUMO Tm Shift (° C.) (mSTING-R232 (aa139-378))	WT_DSF_hSWAT Tm Shift (° C.) (hSTING-R232)	IC50 [2] [µM]	Structure (SMILES)
> 50	100 to 300	C (“C” = 5-15° C.)	C (“C” = 2-7° C.)	100 to 300	CCOc1c(Cl)ccc2c(=O)c3ccc(C)nc3n(CC(=O)O)c12 [Compound 2]
> 50	20 to 100	C (“C” = 5-15° C.)	D (“D” > 7° C.)	20 to 100	CCOc1c(Cl)ccc2c(=O)c3ccc(C(C)C)nc3n(CC(=O)O)c12 [Compound 3]
5 to 25	20 to 100		D (“D” > 7° C.)		CSc1c(Cl)ccc2c(=O)c3ccc(N(C)CCn4ccnc4C)nc3n(CC(=O)O)c12 [Compound 81, sodium 2-(8-chloro-2-{methyl[2-(2-methylimidazol-1-yl)ethyl]amino}-9-(methylsulfanyl)-5-oxobenzo[b]1,8-naphthyridin-10-yl)acetate]
5 to 25	100 to 300		D (“D” > 7° C.)		Cc1nccn1CCN(C)c1ccc2c(=O)c3ccc(Cl)c(N(C)C)c3n(CC(=O)O)c2n1 [Compound 82, sodium 2-[8-chloro-9-(dimethylamino)-2-{methyl[2-(2-methylimidazol-1-yl)ethyl]amino}-5-oxobenzo[b]1,8-naphthyridin-10-yl]acetate]
